According to US4698341A, “Use of 1,6-naphthyridinone derivatives in treating pulmonary thrombosis” (Godecke Aktiengesellschaft, priority 1983, dated 1987):
Read-outs that look alike come from different tables or passages of the source.

Key:
[1] = tested on: ADP-induced thrombocyte aggregation (platelet-rich plasma); assay: ADP-induced thrombocyte aggregation in vitro (rat); type: cell-based, rat (male Sprague Dawley SIV 50); conditions: read-out: IC50 value, ADP-induced thrombocyte aggregation
Method: (§1) Collagen or ADP-induced thrombocyte aggregation in vitro (rat)
(§2) The test was carried out according to the method of BORN (Nature 194, 927-929, 1962). […] Blood was withdrawn from the postorbital venous plexus under ether anesthesia. Nine aliquots of blood were mixed with one aliquot of 3.8% (w/v) tri-Na-citrate solution. After low speed centrifugation of the mixture at room temperature, the platelet-rich plasma (PRP corresponding to the erythrocyte-frree supernatant) was removed and adjusted to a standard concentration of 400 000/μl. A universal aggregometer (Braun, Melsungen) connected with an Eppendorf photometer 1100M (Netheler and Hinz, Hamburg) was used as a measuring instrument. In this test portions of 700 μl of platelet-rich plasma (PRP) were equilibrated in the aggregometer at 37° C. for five minutes and then mixed with 58 μl of the test substance solution or with a 0.9% NaCl solution (corresponding to the blank value). After an incubation time of three minutes, the addition of 35 μl collagen suspension (collagen reagent HORM(®), Hormon Chemie, Munich) or 20 μl ADP solution (end concentration in the test 1×10^-5 mol/liter) causes aggregation. A compensation recorder recorded the change in transmission during the following 15 minutes.
(§3) The largest change in transmission occurring in this period was called amplitude (amp) of the aggregation curve. Aggregation-inhibiting substances produce a decrease of this amplitude; the inhibitory effect (E) of a substance is calculated according to the following formula:
(§4) E=(Ampbank value -AMPtest substance)/Ampblank value
(§5) Dose-effect curves were drawn for calculating the IC50 values.

[2] = tested on: Collagen-induced thrombocyte aggregation (platelet-rich plasma); assay: Collagen-induced thrombocyte aggregation in vitro (rat); type: cell-based, rat (male Sprague Dawley SIV 50); conditions: read-out: IC50 value, collagen-induced thrombocyte aggregation
Method: as §1, §2, §3, §4, §5

[3] = tested on: tenia coli (guinea pig); assay: Ca2+ effect on the smooth muscles, tenia coli, inhibition of contraction amplitude; type: cell-based; conditions: Cavia porcellus, 10 min, 32° C.; for inhibition: 3·10^-5 mol/l
Method: 1. Ca^2+ effect on the smooth muscles
Approximately 10 mm long, freshly isolated pieces of the tenia coli (guinea pig) were encircled at both ends with threads and connected with a mechanico-technical transducer in the organ bath (32° C., bubbled through with carbogen). Five to ten mN (0.5-1 p) were selected as mechanical pretension. […] This solution was exchanged for K+-rich and Ca++-free solution (40 mmol/l) KCl for depolarization of the cell membrane, the NaCl concentration being decreased correspondingly. One mmol/l CaCl2 was added to the nutrient solution under equilibrium conditions, resulting in a contraction of the muscle preparation. After reaching the new equilibration the test substance was added to the organ bath.
The percentage inhibition of the contraction amplitude after a ten-minute time of action of the test substance, related to the amplitude prior to administration of the substance, was calculated as substance effect. Each substance was tested in two preparations.

[4] = tested on: left atrium of guinea pig; assay: Isolated left atrium of guinea pigs, inhibition of contraction amplitude; type: cell-based; conditions: Cavia porcellus; approximate values from four atriums, 35° C., 100 imp/min
Method: 2. Isolated atriums of guinea pigs
In a thermostated (35° C.) dissecting dish containing modified nutrient solution acc. to Krebs-Henseleit the left atrium was cautiously separated from the ventricle myocardium by means of scissors and a needle with thread passed through the apex of the atrium and knotted. Subsequently, the basis of the atrium was fastened to the hook of a preparation holder and transferred to a thermostated organ bath containing nutrient solution (25 ml, 35° C.). In the organ bath the thread at the apex of the atrium was attached to a mechanicoelectric transducer. Electrical stimulation was effected supramaximally with a frequency of 100 imp/min (stimulation range 2.5 msec). The hook of the preparation holder represented an electrode, whereas the second electrode was designed as field electrode in the preparation holder parallel to the tensioned atrium.
The substances were cumulatively added to the organ bath at intervals of four minutes.

[5] = rat PRP 400 000/μl, 37° C., ADP 1×10^-5 mol/liter, Arith. M±S.D.
[6] = rat PRP 400 000/μl, 37° C., collagen, Arith. M±S.D.

Compound | IC50 [1, 5] [µM] | IC50 [2, 6] [µM] | IC50 [4] [µM] | inhibition [3] [%] | IC50 ([1]; Rattus norvegicus) [µM] | IC50 ([2]; Rattus norvegicus) [µM] | inhibition at 1 µM ([3]; 10^-6 mol/l) [%]
CCOC(=O)C1=C(C)Nc2ccn(CCCN(C)C)c(=O)c2C1c1cccc([N+](=O)[O-])c1 (stereo not drawn) [Example 2, 1,4,5,6-Tetrahydro-6-(3-dimethylaminopropyl)-2-methyl-4-(3-nitrophenyl)-5-oxo-1,6-naphthyridine-3-carboxylic acid ethyl ester] | 510 ± 40 | 160 ± 10 | 300 | 88 ± 12 |  |  | 
CCOC(=O)C1=C(C)Nc2ccn(CCCN(C)C)c(=O)c2C1c1cccc(Cl)c1 (stereo not drawn) [Example 4 b., 1,4,5,6-Tetrahydro-4-(3-chlorophenyl)-6-(3-dimethylaminopropyl)-2-methyl-5-oxo-1,6-naphthyridine-3-carboxylic acid ethyl ester] | 410 ± 50 | 160 ± 10 | 300 | 57 ± 7 |  |  | 
CCOC(=O)C1=C(C)Nc2ccn(CCCN3CCCCC3)c(=O)c2C1c1ccccc1Cl (stereo not drawn) [Example 4 e., 1,4,5,6-Tetrahydro-4-(2-chlorophenyl)-2-methyl-5-oxo-6-(3-piperidinopropyl)-1,6-naphthyridine-3-carboxylic acid ethyl ester.1/2 ethyl acetate] | 330 ± 20 | 160 ± 20 | 100 | 81 ± 5 |  |  | 
COc1ccc(CCN(C)CCCC(C#N)(c2ccc(OC)c(OC)c2)C(C)C)cc1OC (stereo not drawn) [Verapamil, reference compound] |  |  | 2 |  | 560 ± 60 | 210 ± 20 | 100

Continued, in another order:

IC50 [1, 5] [µM] | IC50 [2, 6] [µM] | IC50 [4] [µM] | Compound | inhibition [3] [%] | IC50 ([1]; Rattus norvegicus) [µM] | IC50 ([2]; Rattus norvegicus) [µM] | inhibition at 1 µM ([3]; 10^-6 mol/l) [%]
180 ± 10 | 60 ± 10 | 300 | CCOC(=O)C1=C(C)Nc2ccn(CCCN3CCCCC3)c(=O)c2C1c1cccc(Cl)c1 (stereo not drawn) [Example 4 c., 1,4,5,6-Tetrahydro-4-(3-chlorophenyl)-2-methyl-5-oxo-6-(3-piperidinopropyl)-1,6-naphthyridine-3-carboxylic acid ethyl ester] | 44 ± 6 |  |  | 
240 ± 10 | 70 ± 10 | 100 | CCOC(=O)C1=C(C)Nc2ccn(CCCN3CCCCC3)c(=O)c2C1c1cccc([N+](=O)[O-])c1 (stereo not drawn) [Example 4 f., 1,4,5,6-Tetrahydro-2-methyl-4-(3-nitrophenyl)-5-oxo-6-(3-piperidinopropyl)-1,6-naphthyridine-3-carboxylic acid ethyl ester] | 79 ± 3 |  |  | 
